Test results published in patent publication US7696194B2, “Visual function disorder improving agents” (Senju Pharmaceutical Co., Ltd., priority 2001, dated 2010).
Counter-ions that a name gives are not always drawn.

Assays:
retinal ganglion cell [1] = assay: In vitro extension of nerve axon of cultured retinal ganglion cells (Example 1); format: cell-based, Wistar rat; conditions: then 10 μM compound added, further 24 hrs
Procedure: Retinal ganglion cells were isolated from an eye ball of a Wistar rat, and cultured in a 48 well plate coated with polylysin (50 μg/mL, Sigma) and merosin (2 μg/mL, GIBCO) at 37° C. under the environment of 5% CO2, 95% air. The number of the cells was about 5000 cells/well. The culture solutions were a culture solution (fetal calf serum-free culture solution) of Neurobasal Medium (GIBCO) supplemented with 50 ng/mL BDNF (human brain-derived neurotrophic factor, Sigma), 50 ng/mL CNTF (rat cilliary neurotrophic factor, Sigma), 5 μM forskolin (Sigma), 1 mM glutamine (Wako) and B27 Supplement (GIBCO; 1 mL/50 mL culture solution), and a culture solution (FCS supplemented culture solution) of the aforementioned fetal calf serum-free culture solution supplemented with 10% fetal calf serum (hereinafter to be also referred to as FCS). After culture for 24 hrs in each culture solution, the group cultured in the FCS supplemented culture solution was divided into 2 groups, and one of them was used as a compound 1 addition group with the addition of 10 μM of compound 1, and the other was used as a compound 1 non-addition group. Similarly, the group cultured in the FCS-free culture solution was divided into a compound 1 addition group and a compound 1 non-addition group. […]

optic nerve cell [2] = assay: In vivo optic nerve cell regeneration after optic nerve cut and sciatic nerve autograft (Example 2); parameters: species or system SD rats; conditions: 120 μmol/L, 5 μL into the vitreous body plus gelatin pieces with 10 μmol/L around the autograft, 6 weeks after grafting
Procedure: The optic nerve of SD rats weighing 220-280 g was cut under pentobarbital sodium (0.4 mg/kg, i.p.) anesthesia. Separately, the sciatic nerve of the optic nerve-severed rat was taken out in about 3-4 cm and autografted at an end of the optic nerve, which had been cut earlier. The compound 1 dissolved to 120 μmol/L was injected into the vitreous body by 5 μL immediately before cutting the optic nerve, and gelatin pieces (3 mm×3 mm; Spongel, Yamanouchi Pharm.) immersed in a 10 μmol/L solution of compound 1 were embedded around the autograft (compound 1 treatment group). For the non-treatment group, physiological saline was used instead of compound 1 for both the injection into the vitreous body and preparation of the gelatin pieces. […] The images of the retinal extension samples observed under a microscope were directly imported into computer images from the fluorescence microscope and the retrogradedly labeled retinal ganglion cells were counted using an image analyzing soft (MacSCOP, MITANI CO.). […]
The ratios (%) of the regenerated cell counts of the non-treatment group and compound 1 treatment group, relative to the optic nerve cell counts of the control, were calculated.

retinal ganglion cell [3] = assay: In vitro extension of nerve axon of cultured retinal ganglion cells (Example 3); format: cell-based, Wistar rat
Procedure: Retinal ganglion cells were isolated from an eye ball of a Wistar rat and cultured in a 48 well plate coated with polylysine (50 μg/mL, Sigma) and merosin (2 μg/mL, GIBGO) at 37° C. under the environment of 5% CO2, 95% air. The number of cells was about 5000 cells/well. The culture solution was a culture solution (FCS-free culture solution) of Neurobasal Medium (GIBCO) supplemented with 50 ng/mL BDNF (human brain-derived neurotrophic factor, Sigma), 50 ng/mL CNTF (rat cilliary neurotrophic factor, Sigma), 5 μM forskolin (Sigma), 1 mM glutamine (Wako) and B27 Supplement (GIBCO; 1 mL/50 mL culture solution). After culture for 24 hrs in a culture solution of the aforementioned FCS-free culture solution supplemented with 10% FCS (FCS-supplemented culture solution containing Rho activator) and an FCS-free culture solution, the group cultured in the FCS-free culture solution was divided into 2 groups, and one of them was used as a compound 2 addition group with the addition of 10 μM of compound 2, and the other was used as a compound 2 non-addition group. After further culture for 24 hrs, the level of extension of nerve axon of a retinal ganglion cell was observed under an inverted light microscope. In addition, 1 μM lysophosphatidic acid (LPA), which is a Rho activator, was added to an FCS-free group and axon retraction due to Rho activation was also examined.

optic nerve cell [4] = assay: In vivo optic nerve cell regeneration after optic nerve cut and sciatic nerve autograft (Example 4); parameters: species or system SD rats; conditions: for regenerated optic nerve cell count relative to the control group: control = physiological saline; for regenerated optic nerve cell count relative to the normal group: 5 μL into the vitreous body, 6 weeks after grafting
Procedure: The optic nerve of SD rats weighing 220-280 g was cut under pentobarbital sodium (0.4 mg/kg, i.p.) anesthesia. Separately, the sciatic nerve of the optic nerve-severed rat was taken out in about 3-4 cm and autografted at an end of the optic nerve, which had been cut-earlier. The compound 2 dissolved to 120 μM was injected into the vitreous body by 5 μL immediately before cutting the optic nerve, and gelatin pieces (3 mm×3 mm; Spongel, Yamanouchi Pharm.) immersed in a 10 μM solution of compound 2 were embedded around the autograft (compound 2 treatment group—1). For compound 2 treatment group—2, the compound 2 dissolved to 1.2 mM was injected into the vitreous body by 5 μL and 100 μM of compound 2 was used around the graft. In the control group, physiological saline was used instead of compound 2. During the grafting, attention was paid to avoid damage to the ophthalmic artery, and after grafting, the retinal vascular network was confirmed with a funduscope before breeding under a temperature 23° C.±2, humidity-55±10% environment. The rats were allowed to have a free access to a feed and water. After 6 weeks from the grafting operation, the graft was transversely cut under pentobarbital sodium (0.4 mg/kg, i.p.) anesthesia, and 4-Di-10ASP [4-(4-didecylaminostyryl)-N-methyl-propidium iodide, Sigma, St. Louis, Mo.] crystal (ca. 2 mg) was embedded in the cut area of the graft, thereby to retrogradely label retinal ganglion cells. […]. The images of the retinal extension samples observed under a microscope were directly imported into computer images from the fluorescence microscope and the retrogradely labeled retinal ganglion cells were counted using an image analyzing soft (MacSCOP, MITANI CO.) (FIG. 4). The obtained number of the retrogradely labeled retinal ganglion cells was taken as indicating the regenerated optic nerve cells. Meanwhile, the optic nerve of the rat free of grafting was cut, 4-Di-10ASP crystal (ca. 2 mg) was embedded similarly, and the number of the labeled retinal ganglion cells of the retinal extension sample was taken as the number of optic nerve cells of the normal group.
The ratios (%) of the regenerated optic nerve cell counts of the control group, compound 2 treatment group—1 and compound 2 treatment group—2, relative to the optical nerve cell counts of the control, were calculated.

retinal ganglion cell [5] = assay: In vitro axon length of cultured retinal ganglion cells, Calcein AM image analysis (Example 5); format: cell-based, Wistar rats; conditions: 10 μM final concentration, N=3; for proportion of long neurites cells (axon not less than 100 μm) relative to the whole cells: control group 7%; for proportion of middle neurites cells (axon 21 μm-99 μm) relative to the whole cells: control group 12%
Procedure: In the same manner as in Examples 1 and 3, retinal ganglion cells isolated from the eye ball of 6 to 8-day-old Wistar rats (male-female mixture, SLC) were cultured (cell count: ca. 2000 cells/well). The test compounds (compounds 3-5) were added to the culture solution to the final concentration of 10 μM and respectively used as compound 3 addition group, compound 4 addition group and compound 5 addition group. The control was a test compound non-addition group. The compound 3 (4-[2-(2,3,4,5,6-pentafluorophenyl)acryloyl]cinnamic acid) was synthesized according to the description of Example 8 of JP-A-2000-44513 and used. As compound 4 (ethacrynic acid), one made by Sigma was used and as compound 5 (fasudil hydrochloride), a commercially-available fasudil hydrochloride hydrate injection: “Eril® Injection 30 mg” (produced and sold by Asahi Kasei Corporation) was used.
Using LIVE/DEAD® Viability/Cytotoxicity Kit (L-3224)(Molecular probes) and utilizing the fluorescence characteristics of viable cells by Calcein AM, Calcein AM was uptaken into the retinal ganglion cells and the level of extension of nerve axon of a retinal ganglion cell was observed under a fluorescence microscope. The images of the retinal extension samples observed under a microscope were directly imported into computer images from the fluorescence microscope and the length of the nerve axon was measured using an image analyzing soft (MacSCOP, MITANI CO.). The cells having an axon of not less than 100 μm in length were taken as long neurites cells, the cells having an axon of 21 μm-99 μm were taken as middle neurites cells, and the cells having an axon of not more than 20 μm in length were taken as short neurites cells (no axonal extension). The proportion (%) of the long neurites cells and middle neurites cells relative to the whole cells was calculated for each.

C[C@@H](N)c1ccc(C(=O)Nc2ccnc3[nH]ccc23)cc1.C[C@@H](N)c1ccc(C(=O)Nc2ccnc3[nH]ccc23)cc1.Cl.Cl.Cl.Cl.O.O.O [compound 1, (R)-(+)-N-(1H-pyrrolo[2,3-b]pyridin-4-yl)-4-(1-aminoethyl)benzamide dihydrochloride 3/2 hydrate]
level of extension of nerve axon of a retinal ganglion cell (retinal ganglion cell [1]; FCS-free culture solution 24 hrs): the extension of nerve axon became remarkable | level of extension of nerve axon of a retinal ganglion cell (retinal ganglion cell [1]; FCS-supplemented culture solution 24 hrs, versus non-addition group): clearly showed a retinal ganglion cell nerve axon extending action | regenerated optic nerve cell count relative to the non-treatment group (optic nerve cell [2]): about 2.4 times | regenerated optic nerve cell count relative to the control group (optic nerve cell [2]; control = rat free of grafting): about 12%

C[C@@H](N)c1ccc(C(=O)Nc2ccnc3[nH]ccc23)cc1.Cl [compound 2, (R)-(+)-N-(1H-pyrrolo[2,3-b]pyridin-4-yl)-4-(1-aminoethyl)benzamide monohydrochloride]
level of extension of nerve axon of a retinal ganglion cell (retinal ganglion cell [3]; FCS-free culture solution 24 hrs, then 10 μM compound added, further 24 hrs): clearly showed an action of extending the nerve axon of the retinal ganglion cell | regenerated optic nerve cell count relative to the control group (optic nerve cell [4]; treatment group-1: 120 μM intravitreal, 10 μM around the autograft): about 2.3 times | regenerated optic nerve cell count relative to the normal group (optic nerve cell [4]; treatment group-1: 120 μM, 10 μM gelatin pieces around the autograft): about 16% | regenerated optic nerve cell count relative to the control group (optic nerve cell [4]; treatment group-2: 1.2 mM intravitreal, 100 μM around the graft): about 4 times | regenerated optic nerve cell count relative to the normal group (optic nerve cell [4]; treatment group-2: 1.2 mM, 100 μM around the graft): about 28%

C=C(C(=O)c1ccc(C=CC(=O)O)cc1)c1c(F)c(F)c(F)c(F)c1F [compound 3, 4-[2-(2,3,4,5,6-pentafluorophenyl)acryloyl]cinnamic acid]
proportion of long neurites cells (axon not less than 100 μm) relative to the whole cells (retinal ganglion cell [5]): 22% | proportion of middle neurites cells (axon 21 μm-99 μm) relative to the whole cells (retinal ganglion cell [5]): 23%

C=C(CC)C(=O)c1ccc(OCC(=O)O)c(Cl)c1Cl [compound 4, ethacrynic acid]
proportion of long neurites cells (axon not less than 100 μm) relative to the whole cells (retinal ganglion cell [5]): 11% | proportion of middle neurites cells (axon 21 μm-99 μm) relative to the whole cells (retinal ganglion cell [5]): 45%

O=S(=O)(c1cccc2cnccc12)N1CCCNCC1 [compound 5, fasudil hydrochloride]
proportion of long neurites cells (axon not less than 100 μm) relative to the whole cells (retinal ganglion cell [5]): 15% | proportion of middle neurites cells (axon 21 μm-99 μm) relative to the whole cells (retinal ganglion cell [5]): 53%

lysophosphatidic acid [LPA, reference compound]
axon retraction due to Rho activation (retinal ganglion cell [3]; FCS-free culture solution 44 hrs, then 1 μM LPA, further 4 hrs): axon retraction effect
